Measured values published in patent US5298652A, “N-substituted glycines, inhibitors of phospholipase A2” (Hoffmann-La Roche Inc., priority 1992, dated 1994).

Legend:
[1] = tested on: croton oil-induced mouse ear edema; experiment: Croton oil mouse ear edema test; type: in vivo, male CD-1 mice; details: 1 mg topical, coapplied with croton oil; ear punch weight at 6 hours
Method: Croton Oil Mouse Ear Edema Test
The croton oil-induced mouse ear edema test, a model of irritant-induced contact dermatitis, has been used for evaluation of the PLA2 inhibitors by the topical route of administration. This test was carried out as described in the following references: […]
Twenty five μl of a 1% croton oil solution [dissolved in a mixture of pyridine/water/diethyl ether at a ratio of 5/20/75 (croton oil vehicle)] are applied to the outer side of the right ear of 3-4 week old male CD-1 mice (8 animals per group). The test compounds are dissolved directly in the 1% croton oil solution at various concentrations and coapplied. Control animals receive 25 μl of croton oil vehicle on the right ear. Biopsy punches are removed at 6 hours from the right ear of the animals using a 6 mm skin trephine (Roboz, Washington, D.C.) and the wet weight of the ear punches is determined. The weight of the biopsy punches is a measure of ear inflammation, primarily edema. The data are expressed as percent inhibition relative to control groups.
Statistical analysis of the mean edema values of the control versus the treated groups is performed using Student's t-test. The significance of changes from mean value for vehicle-treated animals is as follows (*p<0.05, **p<0.01, ***p<0.005, ns/not significant).

[2] = target: T1, HSF-PLA2 (extracellular PLA2 obtained from human synovial fluid) (Homo sapiens, UniProt P14555); experiment: Assay for inhibition of HSF-PLA2 in vitro; type: biochemical; details: read-out: % Inhib of HSF-PLA2; for inhibition at 5 µM: 5 μM test compound; for inhibition at 1 µM: 1 μM test compound
T1 construct: extracellular enzyme obtained from human synovial fluid; from tissue; host or cells: human synovial fluid (pooled)
T1 sequence (P14555 21-144): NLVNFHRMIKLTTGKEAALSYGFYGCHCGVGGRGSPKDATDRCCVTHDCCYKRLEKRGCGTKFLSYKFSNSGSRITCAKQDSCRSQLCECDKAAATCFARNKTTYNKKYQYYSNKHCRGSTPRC
Method: Assay for Inhibition of HSF-PLA2 In Vitro
The PLA2 used in this test is the extracellular enzyme obtained from human synovial fluid (HSF-PLA2).
The assay for HSF-PLA2 activity was a modification of the described method [Franson R., Dobrow R., Weiss, J., Elsbach P., and Weglick W. B., J. Lipid Res., 19, 18-23 (1978)] which was conducted using [1-^14 C]-oleate-labelled E. coli substrate in excess at a final concentration of 20,000 dpm/ml. This was equivalent to 18.2 mM of cell membrane phospholipid phosphorus and 2×10^9 autoclaved E. coli/ml. The optimal conditions which were developed for the assay of HSF-PLA2 inhibitors are summarized as follows. A total volume of 0.5 ml of reaction mixture typically had the following final composition: substrate (20,000 dpm/ml); enzyme (0.1% HSF, v/v); 2 mM CaCl2; 150 mM Na^+; 50 mM sodium HEPES buffer, pH 7.3; and 1% dimethyl sulfoxide (DMSO, used to solubilize test inhibitors) in the presence or absence of inhibitor. The reaction was initiated by the addition of HSF-PLA2 and duplicate samples of the mixture were incubated in 13×100 mm glass tubes with shaking for 30 minutes at 37° C. The reaction was terminated by the addition of 2.5 ml of chloroform-methanol (1 to 1.5, v/v). The extraction of lipids from the stopped reaction mixture was conducted by the further additions of 0.5 ml of chloroform and 1 ml of water with mixing. After centrifuging, the lower chloroform phase was transferred to smaller glass tubes and the solvent was evaporated to dryness with a nitrogen stream. The extracted lipid residue was redissolved in […] of a solution containing carrier oleic acid (0.2 mg/ml) in chloroform-methanol [9 to 1, v/v]). The whole lipid extract was applied to a preactivated (30 minutes at 110° C.) silica gel-impregnated glass fiber thin layer chromatography sheet (ITLC type SG sheet from Gelman Sciences Inc., Ann Arbor, Mich.) using hexane-acetic acid (100 to 1, v/v) as the developing solvent. This TLC system rapidly (6 minutes) resolved the enzymatically released product, ^14 C-oleic acid, from the unreacted ^14 C-phospholipid substrate. The unsaturated lipids were located on the chromatogram by a brief exposure to iodine vapor. The oleic acid zone (Rf value 0.95) and phospholipid zone (origin) were cut out, chopped into small pieces, shaken with 2 ml of ethanol-water (80 to 20, v/v) and 15 ml of Aquasol and counted for radio-activity. A control incubation of substrate in the absence of HSF-PLA2 was performed in each experiment. The PLA2 activity of the human synovial fluid was corrected for this small control value. […] The specific activity of PLA2 in the pooled human synovial fluid under the optimal assay conditions was 49.2 nmoles [1-^14 C]-oleic aid released hour^-1 mg^-1. The IC50 (μM concentration of test compound that produces 50% inhibition of PLA2 activity) was determined for each test compound.

Structure (SMILES) | % Inhib of Croton Oil Mouse Ear Edema (1 mg) [1] [%] | inhibition at 5 µM [2] [%] | inhibition at 1 µM [2] [%]
CCCCCCCCCCCCCCCCCC(=O)Nc1cccc(C(=O)N(CC(=O)O)CC(=O)O)c1 [Example 9, N-(carboxymethyl)-N-[3-(1-oxooctadecylamino)benzoyl]glycine] | 20 | 8 | –
CCCCCCCCCCCCCCCCCCOc1cccc(CCC(=O)N(CC(=O)O)CC(=O)O)c1 [Example 79, N-(Carboxymethyl)-N-[3-[(3-octadecyloxy)phenyl]-1-oxopropyl]glycine] | – | 70 | –
CCCCCCCCCCCCCCCCCCOc1cc(OCCCOc2cccc(N)c2)cc(C(=O)N(CC(=O)O)CC(=O)O)c1 [Example 23, N-(Carboxymethyl)-N-[3-[3-(3-aminophenoxy)propoxy]-5-(octadecyloxy)benzoyl]glycine] | 21 | 50 | –
CCCCCCCCCCCCCCCCCCOc1cc(OCCOc2ccc3ccccc3c2)cc(C(=O)N(CC(=O)O)CC(=O)O)c1 [Example 25] | 44 | -16 | –
O=C(O)CCCCCCCCCCOc1cc(OCCCCCCCCCCC(=O)O)cc(C(=O)N(CC(=O)O)CC(=O)O)c1 [Example 35, N-(carboxymethyl)-N-[3,5-bis[(10-carboxydecyl)oxy]benzoyl]glycine] | 50 | 5 | –
CCCCCCCCCCCCCCOc1ccc(C(=O)N(CC(=O)O)CC(=O)O)cc1OCCCCCCCCCCCCCC [Example 51, N-(Carboxymethyl)-N-[3,4-bis(tetradecyloxy)benzoyl]glycine] | – | 38 | –
CCCCCCCCCCCCCCCCCCOc1cc(O)cc(C(=O)N(CC(=O)O)CC(=O)O)c1 [Example 39, N-(Carboxymethyl)-N-[3-hydroxy-5-(octadecyloxy)benzoyl]glycine] | 47 | 20 | –
CCCCCCCCCCCCCCCCCCOc1cccc(C(=O)C(=O)N(CC(=O)O)CC(=O)O)c1 [Example 69, N-(Carboxymethyl)-N-[2-[3-(octadecyloxy)phenyl]-1,2-dioxoethyl]glycine] | 28 | 57 | –
CCCCCCCCCCCCCCCCCCOc1cc(OCCCOc2ccccc2)cc(C(=O)N(CC(=O)O)CC(=O)O)c1 [Example 18, N-(Carboxymethyl)-N-[3-[3-(phenoxy)propoxy]-5-(octadecyloxy)benzoyl]glycine] | 59 | 72 | –
CCCCCCCCCCCCCCCCCCOc1cc(N)cc(C(=O)N(CC(=O)O)CC(=O)O)c1 [Example 44, N-(Carboxymethyl)-N-[3-amino-5-(octadecyloxy)benzoyl]glycine] | 35 | 34 | –
CCCCCCCCCCCCCCCCCCOc1cc(OCc2ccccc2)cc(C(=O)N(CC(=O)O)CC(=O)O)c1 [Example 38, N-(Carboxymethyl)-N-[3-(octadecyloxy)-5-(phenylmethoxy)benzoyl]glycine] | 35 | 55 | –
CCCCCCCCCCCCCCCCCCOc1cc(C(=O)N(CC(=O)O)CC(=O)O)cc([N+](=O)[O-])c1 [Example 43, N-(carboxymethyl)-N-[3-nitro-5-(octadecyloxy)benzoyl]glycine] | 48 | 10 | –
CCCCCCCCCCCCCCCCCCOc1cc(C(=O)O)cc(C(=O)N(CC(=O)O)CC(=O)O)c1 [Example 30, N-(Carboxymethyl)-N-[3-carboxy-5-(octadecyloxy)benzoyl]glycine] | – | 23 | –
CCCCCCCCCCCCCCCCCCOc1cccc(/C=C/C(=O)N(CC(=O)O)CC(=O)O)c1 [Example 78, (E)-N-(carboxymethyl)-N-[3-[(3-octadecyloxy)phenyl]-1-oxo-2-propenyl]glycine] | 48 | 68 | –
CCCCCCCCCCCCCCCCCCOc1cc(OCCCOc2cccc([N+](=O)[O-])c2)cc(C(=O)N(CC(=O)O)CC(=O)O)c1 [Example 22, N-(Carboxymethyl)-N-[3-[3-(3-nitrophenoxy)propoxy]-5-(octadecyloxy)benzoyl]glycine] | 54 | 60 | –
CCCCCCCCCCCCCCCCCCOc1cccc(C(=O)NCC(=O)O)c1 [Example 74, N-[3-(Octadecyloxy)benzoyl]glycine] | 33 | 23 | –
CCCCCCCCCCCCCCOc1cccc(C(=O)N(CC(=O)O)CC(=O)O)c1 [Example 5, N-(Carboxymethyl)-N-[3-(tetradecyloxy)benzoyl]glycine] | – | 13 | –
CCCCCCCCCCCCCCCCCCOc1cccc(CC(=O)N(CC(=O)O)CC(=O)O)c1 [Example 76, N-(Carboxymethyl)-N-[3-(octadecyloxy)phenylacetyl]glycine] | 38 | 45 | –
CCCCCCCCCCOc1cccc(C(=O)N(CC(=O)O)CC(=O)O)c1 [Example 6, N-(Carboxymethyl)-N-[3-(decyloxy)benzoyl]glycine] | 47 | 8 | –
CCCCCCCCCCCCCCCCCCOc1cc(OCCCOc2ccc(OC)cc2)cc(C(=O)N(CC(=O)O)CC(=O)O)c1 [Example 20, N-(carboxymethyl)-N-[3-[3-(4-methoxyphenoxy)propoxy]-5-(octadecyloxy)benzoyl]glycine] | – | – | 18
CCCCCCCCCCCCCCCCCCOc1cc(OCC(=O)O)cc(C(=O)N(CC(=O)O)CC(=O)O)c1 [Example 33, N-(Carboxymethyl)-N-[3-(carboxymethoxy)-5-(octadecyloxy)benzoyl]glycine] | 71 | – | 29
CCCCCCCCCCCCCCOc1cc(OCCCCCCCCCCCCCC)cc(C(=O)N(CC(=O)O)CC(=O)O)c1 [Example 13, N-(Carboxymethyl)-N-[3,5-bis(tetradecyloxy)benzoyl]glycine] | 60 | – | 27
